Measured values taken from paper PMC10597649, “Effect of Astragali radix extract on pharmacokinetic behavior of dapagliflozin in healthy and type 2 diabetic rats” (Frontiers in Pharmacology, 2023).
Where two headings read alike, the source gives them in different places.

How the values were obtained:
[1] = ref Kasichayanula et al., 2011, cited from earlier work
[2] = in vivo; settings: for Cmax / MRT last / half-life / Tmax: male, Sprague-Dawley, rat, plasma, po; for MRT last: MRT(0-t)
Description: An AB SCIEX (USA) Exion LC system consisting of vacuum degasser, binary pump and auto-sampler were used for solvent and sampler delivery. Chromatographic separation was achieved using Agilent Poroshell 120 EC-C18 column (2.1 × 100 mm, 1.9 μm). The column temperature was maintained at 40°C. The mobile phase consisted of 0.1% formic acid-1mM ammonium formate-water solution (A) and acetonitrile (B) was used, and the flow rate was set at 0.3 mL/min. The gradient elution program was as follows: 0–2.0 min (90%–65% A), 2.0–6.0 min (65%–60% A), 6.0–7.0 min (60%–90% A), 7–10 min (90% A). The processed samples were stored at 4°C in an auto sampler. The sample injection volume was 2 μL. An AB SCIEX (USA) Q-TRAP 6500 model mass spectrometer (MS) equipped with a turbolon spray ionization (ESI) source was used for mass analysis and detection. DAPA and the internal standard (IS, i.e., empagliflozin) were analyzed in positive ion mode with multiple reaction monitoring (MRM) pairs: m/z 426.1–355.0 for DAPA and m/z 468.1–355.1 for IS. The ion spray voltage was set at 5500V. The curtain gas, ion source gas 1 and ion source gas 2 were set at 35, 60 and 50 psi, respectively. The source temperature was kept at 200°C. The collision gas was set at low flow rate. The declustering potential and collision energy were 35 V and 19 V for DAPA, 40 V and 21 V for IS.
The rat plasma samples (50 μL), IS working solution (5 μL), 50% methanol (5 μL), and MTBE (500 μL) were mixed, then were vortexed for 3 min and centrifuged for 5 min (4000 rpm, 4°C). The organic phase was transferred to a new centrifuged tube and evaporated to dryness with a stream of nitrogen at room temperature. The dried samples were redissolved with 100 µL of 50% methanol and vortexed for 1 min, then 2 µL of supernatant fluid was injected into the LC-MS/MS instrument for analysis.
Male Sprague Dawley (SD) rats (180–220g, 6–8 weeks old) were provided by Animal Experimentation Centre, School of Pharmacy, Fudan University (Shanghai, China). All the experimental procedures for this study were reviewed and approved by Experimental Animal Ethics Committee of School of Pharmacy, Fudan University, which was in strict compliance with the International Code for the Care and Use of Experimental Animals (approval number:2020-04-LY-MG-01). All the animals were housed under standard laboratory conditions of temperature (25°C ± 2°C), constant humidity (55 ± 5%), and light (12 h dark/light cycle), with freely available food and purified water. After 1 week of acclimation, 12 rats were randomly selected as the healthy group that was fed with the ordinary feed. The remaining 20 rats were modeled for T2DM that were fed with high-fat diet (HFD). After 4 weeks, the modeled rats fed HFD were fasted overnight, and measured fasting blood glucose (FBG), then intraperitoneally injected with STZ (35 mg/kg, inject once). One week later, the FBG was measured again, and only those rats whose FBG were over 16.7 mmol/L were considered to be T2DM rats.
Dose of 1 mg/kg for DAPA used in the study was recommended based on the package insert of DAPA and dose conversion per unit weight from humans to rats (6.3 times). ARE was administered to the rats with the dose of 300 mg/kg, which was selected by converting the recommended doses of AR for adults in practice to the doses of ARE for the rats, according to the Pharmacopoeia of the People’s Republic of China. The healthy rats and T2DM rats were randomly assigned to two groups (n = 6 each group). The CD group was the healthy rats intragastrically administered with DAPA in a single dose (1 mg/kg). The CDA group was the healthy rats intragastrically administered with ARE (300 mg/kg) once a day for seven consecutive days, and intragastrically administered with DAPA (1 mg/kg) at the same time on the seventh day. The MD group was the T2DM rats intragastrically administered with DAPA in a single dose (1 mg/kg).

[3] = MD group: T2DM rats, DAPA alone, single intragastric dose 1.05 mg/kg, n = 6, mean ± SD
[4] = MDA group compared to MD group (T2DM rats, with ARE versus DAPA alone)
[5] = MDA group: T2DM rats, ARE 300 mg/kg intragastric once a day for 7 days + DAPA single dose 1.05 mg/kg on day 7, n = 6, mean ± SD
[6] = MDA-H group: T2DM rats, ARE 900 mg/kg once a day for 7 days + DAPA single dose 1.05 mg/kg on day 7, n=6, mean ± SD
[7] = MDA-L group: T2DM rats, ARE 300 mg/kg once a day for 7 days + DAPA single dose 1.05 mg/kg on day 7, n=6, mean ± SD
[8] = T2DM rats compared to healthy rats, DAPA alone

CCOc1ccc(Cc2cc([C@@H]3O[C@H](CO)[C@@H](O)[C@H](O)[C@H]3O)ccc2Cl)cc1 [DAPA, Dapagliflozin]
increase of C max ([1]; patients with mild liver function damage versus healthy subjects): 12%
increase of C max ([1]; patients with moderate liver function damage versus healthy subjects): 12%
increase of C max ([1]; patients with severe liver function damage versus healthy subjects): 40%
AUC(0-inf) [2, 3]: 4505.74±148.96 h*(ng/mL)
AUC(0-t) [2, 3]: 4324.28±185.47 h*(ng/mL)
CL [2, 3]: 233.25±7.80 (mL/h)/kg
V [2, 3]: 1.49898 ± 0.30743 L/kg
decrease of C max [2, 4]: 31.99%
decrease of t max [2, 4]: 62.50%
increase of V [2, 4]: 2.06 fold
increase of t 1/2 [2, 4]: 2.18 fold
AUC(0-inf) [2, 5]: 4865.13±1307.11 h*(ng/mL)
AUC(0-t) [2, 5]: 4051.27±952.61 h*(ng/mL)
CL [2, 5]: 228.25±56.10 (mL/h)/kg
V [2, 5]: 3.09173 ± 1.18358 L/kg
AUC(0-inf) [2, 6]: 4464.67±408.26 h*(ng/mL)
AUC(0-t) [2, 6]: 4070.47±408.83 h*(ng/mL)
CL [2, 6]: 237.88±21.93 (mL/h)/kg
V [2, 6]: 2.55248 ± 0.48245 L/kg
AUC(0-inf) [2, 7]: 4560.99±768.53 h*(ng/mL)
AUC(0-t) [2, 7]: 3991.37±640.65 h*(ng/mL)
CL [2, 7]: 235.15±35.35 (mL/h)/kg
V [2, 7]: 2.91586 ± 0.51024 L/kg
decrease of t max [2, 8]: 29.45%
increase of C max [2, 8]: 62.94%
difference of AUC(0-t), AUC(0-inf), CL, MRT ([2]; between the MD group and the MDA group (T2DM rats)): no significant difference
changes for t 1/2, V, AUC, CL and MRT ([2]; healthy rats versus T2DM rats, DAPA alone): no significant changes
Cmax ([2]; 1.05 mg/kg, C max, MD group: T2DM rats, DAPA alone, single intragastric dose 1.05 mg/kg, n = 6, mean ± SD): 627 ± 68.6 ng/mL
Cmax ([2]; 1.05 mg/kg, Cmax, MDA-H group: T2DM rats, ARE 900 mg/kg once a day for 7 days + DAPA single dose 1.05 mg/kg on day 7, n=6, mean ± SD): 457 ± 50.4 ng/mL
Cmax ([2]; 1.05 mg/kg, Cmax, MDA-L group: T2DM rats, ARE 300 mg/kg once a day for 7 days + DAPA single dose 1.05 mg/kg on day 7, n=6, mean ± SD): 433 ± 62.6 ng/mL
MRT last ([2]; 1.05 mg/kg, MD group: T2DM rats, DAPA alone, single intragastric dose 1.05 mg/kg, n = 6, mean ± SD): 7.57 ± 0.32 h
MRT last ([2]; 1.05 mg/kg, MDA-H group: T2DM rats, ARE 900 mg/kg once a day for 7 days + DAPA single dose 1.05 mg/kg on day 7, n=6, mean ± SD): 7.23 ± 0.37 h
MRT last ([2]; 1.05 mg/kg, MDA-L group: T2DM rats, ARE 300 mg/kg once a day for 7 days + DAPA single dose 1.05 mg/kg on day 7, n=6, mean ± SD): 7.39 ± 0.34 h
half-life ([2]; 1.05 mg/kg, t 1/2, MD group: T2DM rats, DAPA alone, single intragastric dose 1.05 mg/kg, n = 6, mean ± SD): 4.45 ± 0.9 h
half-life ([2]; 1.05 mg/kg, t1/2, MDA-H group: T2DM rats, ARE 900 mg/kg once a day for 7 days + DAPA single dose 1.05 mg/kg on day 7, n=6, mean ± SD): 7.44 ± 0.86 h
half-life ([2]; 1.05 mg/kg, t1/2, MDA-L group: T2DM rats, ARE 300 mg/kg once a day for 7 days + DAPA single dose 1.05 mg/kg on day 7, n=6, mean ± SD): 8.64 ± 1.08 h
Tmax ([2]; 1.05 mg/kg, t max, MD group: T2DM rats, DAPA alone, single intragastric dose 1.05 mg/kg, n = 6, mean ± SD): 4 h
Tmax ([2]; 1.05 mg/kg, tmax, MDA-H group: T2DM rats, ARE 900 mg/kg once a day for 7 days + DAPA single dose 1.05 mg/kg on day 7, n=6, mean ± SD): 1.45 ± 0.61 h
Tmax ([2]; 1.05 mg/kg, tmax, MDA-L group: T2DM rats, ARE 300 mg/kg once a day for 7 days + DAPA single dose 1.05 mg/kg on day 7, n=6, mean ± SD): 1.25 ± 0.82 h
Cmax ([2]; C max, MDA group: T2DM rats, ARE 300 mg/kg intragastric once a day for 7 days + DAPA single dose 1.05 mg/kg on day 7, n = 6, mean ± SD): 427 ± 58.9 ng/mL
MRT last [2, 5]: 7.64 ± 0.7 h
half-life ([2]; t 1/2, MDA group: T2DM rats, ARE 300 mg/kg intragastric once a day for 7 days + DAPA single dose 1.05 mg/kg on day 7, n = 6, mean ± SD): 9.69 ± 3.47 h
Tmax ([2]; t max, MDA group: T2DM rats, ARE 300 mg/kg intragastric once a day for 7 days + DAPA single dose 1.05 mg/kg on day 7, n = 6, mean ± SD): 1.5 ± 0.77 h
